Target: Epidermal growth factor receptor (Homo sapiens) (UniProt P00533)
Assay: total EGFR protein level reduction, late-stage follow-up, counter-screen for KLF5 inhibitor project, SW620 cells, chemiluminescent western blot, powder samples (AID 588667)
Conditions: 24 h, at 10 µM; for inhibition: stronger effect = higher value; for signed fold change of EGFR band vs DMSO (negative = fold decrease; more negative = more active): measured here: EGFR band fold change vs DMSO

Epidermal growth factor receptor (Homo sapiens), sequence (P00533 whole entry, looked up): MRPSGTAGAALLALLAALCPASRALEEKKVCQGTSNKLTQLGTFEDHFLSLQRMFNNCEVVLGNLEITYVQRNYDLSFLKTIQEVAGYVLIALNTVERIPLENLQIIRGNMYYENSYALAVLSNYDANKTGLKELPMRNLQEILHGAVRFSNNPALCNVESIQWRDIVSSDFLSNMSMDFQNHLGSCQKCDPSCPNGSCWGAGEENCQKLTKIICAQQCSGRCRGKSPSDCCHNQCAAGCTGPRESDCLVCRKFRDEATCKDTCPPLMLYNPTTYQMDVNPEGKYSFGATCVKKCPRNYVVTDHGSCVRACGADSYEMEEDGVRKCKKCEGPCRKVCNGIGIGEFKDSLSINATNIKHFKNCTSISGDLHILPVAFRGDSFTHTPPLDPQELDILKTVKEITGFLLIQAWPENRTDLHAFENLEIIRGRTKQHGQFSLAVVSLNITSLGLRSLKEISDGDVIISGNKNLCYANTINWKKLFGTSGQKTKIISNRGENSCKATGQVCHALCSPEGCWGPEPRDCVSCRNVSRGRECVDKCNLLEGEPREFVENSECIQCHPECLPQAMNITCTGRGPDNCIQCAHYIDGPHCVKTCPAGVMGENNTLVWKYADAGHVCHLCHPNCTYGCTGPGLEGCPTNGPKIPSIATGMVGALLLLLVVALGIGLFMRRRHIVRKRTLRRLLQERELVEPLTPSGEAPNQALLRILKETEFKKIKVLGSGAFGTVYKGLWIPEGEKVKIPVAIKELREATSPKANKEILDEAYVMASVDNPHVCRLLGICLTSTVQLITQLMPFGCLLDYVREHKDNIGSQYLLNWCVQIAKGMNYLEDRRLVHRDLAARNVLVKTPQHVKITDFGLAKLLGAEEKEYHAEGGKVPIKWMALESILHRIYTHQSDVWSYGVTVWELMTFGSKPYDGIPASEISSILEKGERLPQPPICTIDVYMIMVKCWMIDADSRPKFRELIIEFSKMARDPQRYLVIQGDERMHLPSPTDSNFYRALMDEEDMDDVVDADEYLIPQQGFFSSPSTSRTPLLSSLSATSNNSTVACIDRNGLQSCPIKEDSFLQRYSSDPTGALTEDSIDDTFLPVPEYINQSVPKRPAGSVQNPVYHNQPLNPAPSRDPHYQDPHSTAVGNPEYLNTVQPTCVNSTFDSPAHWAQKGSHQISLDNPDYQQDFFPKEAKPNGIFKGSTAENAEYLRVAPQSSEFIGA

| inhibition [%] | SMILES | signed fold change of EGFR band vs DMSO (negative = fold decrease; more negative = more active) |
| --- | --- | --- |
| 53.3 | CN(C(=O)COC(=O)/C=C/c1cccc([N+](=O)[O-])c1)C1CCS(=O)(=O)C1 (stereo unspecified) | -2.14 |
| 31.7 | CN(C(=O)CNC(=O)/C=C/c1cccc(Cl)c1)C1CCS(=O)(=O)C1 (stereo unspecified) | -1.46 |
| 87.1 | CN(C(=O)CNC(=O)/C=C/c1cccc(Cl)c1)C1CCS(=O)(=O)CC1 | -7.78 |
